From ChEMBL document CHEMBL1201862, “PubChem BioAssay data set” (2004) come the findings set out here.

SMILES strings stand for the structures. Counter-ions that a name gives are not always drawn.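 Test compounds were applied to cells in 96-well plates for 48 hours at 5 doses. GI50 marks 50% less growth.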 Calls of active or inactive are those of the source. Cut-off read from the data, not from the text of the source: active = GI50 up to about 1.1 µM and inactive = higher.

What all share (test): NCI tumour cell line growth inhibition, 48 h
The subject of assay [1] is CAKI-1.
Assay [2] concerns NCI-H226.
For assay [3], the system named is SK-OV-3.
Assay [4] relates to HCT-15.
In assay [5] the test system is NCI-H23.
Assay [6] concerns 786-0.
In assay [7] the test system is NCI-H460.
In assay [8] the test system is HOP-92.
The test system of assay [9] is SF-268.
Assay [10] has as its system CCRF-CEM.
Assay [11] has as its system SNB-19.
Assay [12] concerns SK-MEL-5.
The test system of assay [13] is OVCAR-5.
Assay [14] has as its system HCC 2998.
In assay [15] the test system is M14.
The test system of assay [16] is EKVX.
Assay [17] deals with HL-60.
Assay [18] relates to SN12C.
Assay [19] deals with HT-29.

In the case of `O=[N+]([O-])c1cc(Cl)ccc1Sc1ccccc1`, the GI50 in assay [1] is 93.8 µM (inactive); in assay [2], 34.8 µM (inactive); in assay [3] it was > 100 µM (inactive); in assay [4], 72.3 µM; in [5], > 100 µM (inactive); in assay [6] it was > 100 µM (inactive). Further, the GI50 was 75 µM (inactive) in assay [7]; 42.2 µM (inactive) in assay [8]; > 100 µM (inactive) in [9]; 89.9 µM (inactive) in assay [10]; > 100 µM (inactive) in assay [11]; 75.2 µM (inactive) in assay [12]. For the same compound, the GI50 was > 100 µM (inactive) in assay [13]; 87.9 µM (inactive) in assay [14]; > 100 µM (inactive) in [15]; > 100 µM (inactive) in [16]; 61.7 µM (inactive) in [17]; 77.4 µM (inactive) in assay [18]. Also, in assay [19], the GI50 is 46.8 µM (inactive).

In the case of `C#Cc1cccc(Nc2ncnc3cc(OCCOC)c(OCCOC)cc23)c1` [ERLOTINIB HYDROCHLORIDE], the GI50 in [1] is < 0.01 µM (active); in [3], 0.286 µM (active); in assay [4], 4.76 µM; in assay [5], 41.7 µM (inactive); in assay [6], 8.91 µM (inactive); in assay [7], 2.31 µM (inactive). Also, the GI50 was 4.05 µM (inactive) in assay [8]; > 100 µM (inactive) in [10]; < 0.01 µM (active) in assay [11]; 1.41 µM (inactive) in assay [12]; > 100 µM (inactive) in assay [13]; 6.67 µM (inactive) in assay [15]. Besides, the GI50 is < 0.01 µM (active) in assay [18] and 27.2 µM (inactive) in assay [19].

For `COc1ccc(-c2cc(=O)c3c(O)cc(O)cc3o2)c(OC)c1OC`, the GI50 in assay [1] was 60.8 µM (inactive); in assay [2], > 100 µM (inactive); in assay [3], > 100 µM (inactive); in assay [5], > 100 µM (inactive); in assay [6] it was 80 µM (inactive); in [8] it was 72.6 µM (inactive). Besides, the GI50 in [9] is 85.3 µM (inactive); in assay [10] it was 50 µM (inactive); in [11], > 100 µM (inactive); in assay [13], 92.3 µM (inactive); in assay [14], 92 µM (inactive); in [15] it was > 100 µM (inactive). The GI50 was > 100 µM (inactive) in assay [16], 10.1 µM (inactive) in assay [17], > 100 µM (inactive) in assay [18] and 80 µM (inactive) in [19].

As for `Cc1c2ccccc2c(/C=N/NC(=O)CSCC(=O)N/N=C/c2c3ccccc3c(C)c3ccccc23)c2ccccc12`, the GI50 in assay [1] was > 67.1 µM (inactive); in assay [2], > 44.7 µM (inactive); in assay [3] it was > 100 µM (inactive); in assay [4] it was over 100 µM; in [5], 11.4 µM (inactive); in assay [6] it was 20.7 µM (inactive). Moreover, the GI50 is > 57.7 µM (inactive) in [7]; 13.2 µM (inactive) in assay [8]; 23.8 µM (inactive) in [9]; 34.2 µM (inactive) in [10]; 47 µM (inactive) in assay [11]; 54.7 µM (inactive) in [12]. In addition, the GI50 is 38.9 µM (inactive) in assay [13]; 18.3 µM (inactive) in [14]; > 52.5 µM (inactive) in [15]; > 59 µM (inactive) in assay [16]; > 68.7 µM (inactive) in assay [17]; 61.2 µM (inactive) in assay [18]. Moreover, the GI50 in [19] was > 39.3 µM (inactive).

Turning to `CCCc1nn(C)c(CCC(=O)N(Cc2ccccc2)Cc2ccccc2)c1CC`, the GI50 is > 100 µM (inactive) in [2]; > 100 µM (inactive) in assay [3]; over 100 µM in assay [4]; > 100 µM (inactive) in assay [5]; > 100 µM (inactive) in [6]; > 100 µM (inactive) in assay [7]. Moreover, the GI50 in assay [8], in [9], in assay [10], in assay [11], in assay [12] and in assay [13] was > 100 µM (inactive) in each case. The GI50 in assay [14], in assay [15], in assay [16], in assay [17], in [18] and in assay [19] was > 100 µM (inactive) each time.

As to `Clc1cccc(C2ON=C(c3ccccc3)N2C23CC4CC(CC(C4)C2)C3)c1Cl` (configuration not stated), the GI50 in [1] is > 10 µM (inactive); in assay [2], > 10 µM (inactive); in [3] it was > 10 µM (inactive); in [4], over 10 µM; in assay [5] it was > 10 µM (inactive); in [6] it was > 10 µM (inactive). Besides, the GI50 in assay [7] was > 10 µM (inactive); in [8], 2.72 µM (inactive); in assay [9], > 10 µM (inactive); in [10] it was > 10 µM (inactive); in [11], > 10 µM (inactive); in [12], > 10 µM (inactive). In addition, the GI50 in assay [13], in assay [14], in assay [15], in assay [16], in assay [18] and in [19] was > 10 µM (inactive) each time.

`O=[N+]([O-])C(C(Cl)=C(Cl)Cl)=C(N1CCOCC1)N1CCOCC1`: the GI50 in [1] is > 100 µM (inactive); in assay [2], > 100 µM (inactive); in assay [3], > 100 µM (inactive); in assay [4] it was over 100 µM; in assay [5] it was > 100 µM (inactive); in assay [6], > 100 µM (inactive). For the same compound, the GI50 in [9], in [10], in [11], in assay [12], in assay [13] and in assay [14] was > 100 µM (inactive) in each case. Moreover, the GI50 in [15], in [16], in assay [17], in [18] and in assay [19] was > 100 µM (inactive) throughout.

As for `CC1=CC(=O)C[C@]2(C)[C@@H](O)CC(C(C)CO)C[C@@H]12` (some centres not stated), the GI50 in assay [1] was > 100 µM (inactive); in [2] it was > 100 µM (inactive); in assay [3], > 100 µM (inactive); in [4], over 100 µM; in [5], > 100 µM (inactive); in [6] it was > 100 µM (inactive). Besides, the GI50 in [7], in assay [8], in assay [9], in assay [11], in assay [12] and in assay [13] was > 100 µM (inactive) each time. In addition, the GI50 in [14], in assay [15], in [16], in [17], in [18] and in [19] was > 100 µM (inactive) throughout.

Consider `O=C1Nc2ccccc2/C1=C\c1c(Cl)nc2n1CCS2`, for which the GI50 was 34.8 µM (inactive) in assay [1]; 19.5 µM (inactive) in [3]; 22.5 µM in [4]; 23.7 µM (inactive) in assay [5]; 23.4 µM (inactive) in assay [6]; 18.2 µM (inactive) in assay [7]. Moreover, the GI50 in assay [8] is 34 µM (inactive); in assay [9], 27.4 µM (inactive); in assay [10] it was 26.9 µM (inactive); in assay [11] it was 35.6 µM (inactive); in assay [12] it was 14.6 µM (inactive); in assay [13], 29 µM (inactive). Besides, the GI50 in assay [14] is 17.9 µM (inactive); in [15], 33.7 µM (inactive); in assay [16], 22.9 µM (inactive); in [17] it was 16.8 µM (inactive); in [18], 24.9 µM (inactive); in assay [19], 31.7 µM (inactive).

As for `COc1ccc(OC)c(CC2CCc3nc(N)nc(N)c3C2)c1` (configuration not stated), the GI50 in assay [1] is 27.1 µM (inactive); in [2], 20.9 µM (inactive); in assay [4], under 0.0435 µM; in assay [5], 0.251 µM (active); in assay [6], 0.0565 µM (active); in assay [7], < 0.01 µM (active). The GI50 in assay [8] was 21.9 µM (inactive); in assay [9] it was < 0.0192 µM (active); in assay [10] it was 0.515 µM (active); in assay [11], 1.21 µM (inactive); in assay [12] it was < 0.019 µM (active); in [13] it was 0.51 µM (active). Besides, the GI50 is 0.69 µM (active) in assay [14]; 0.342 µM (active) in [15]; 15.6 µM (inactive) in assay [16]; 3.58 µM (inactive) in assay [17]; 14.5 µM (inactive) in assay [18]; 6.68 µM (inactive) in [19].

With `Cn1c(=O)c2nc(/N=N/Nc3nncs3)[nH]c2n(C)c1=O`, the GI50 in [1] is > 100 µM (inactive); in assay [3], > 100 µM (inactive); in [4], over 100 µM; in assay [5], > 100 µM (inactive); in [6], > 100 µM (inactive); in [7], > 100 µM (inactive). Further, the GI50 in assay [8], in assay [9], in assay [10], in assay [11], in assay [12] and in assay [13] was > 100 µM (inactive) throughout. For the same compound, the GI50 in [14], in assay [15], in assay [16], in assay [18] and in assay [19] was > 100 µM (inactive) throughout.
